Reference: ChEMBL document CHEMBL1141171, “Selective estrogen receptor modulators with conformationally restricted side chains. Synthesis and structure-activity relationship of ERalpha-selective tetrahydroisoquinoline ligands” (J Med Chem, 2005)

Assays:
[1] = Steady state volume of distribution in rat after administration of 1 mg/kg (iv) and 5 mg/kg (po); assay type: ADME, organism-based; settings: in vivo, read-out: Vss
[2] = Maximum plasma concentration of compound in rat after peroral administration of 5 mg/kg; assay type: ADME, organism-based; parameters: dose 5 mg/kg, route oral; settings: po
[3] = Total clearance of compound in rat after administration of 1 mg/kg (iv) and 5 mg/kg (po); assay type: ADME, organism-based; settings: in vivo
in vivo = settings: rat, po, 5 mg/kg

SMILES | Vd [1] | Cmax [2] | clearance [3] | bioavailability (in vivo)
CN1CCC(c2ccc(C3c4ccc(O)cc4CCN3c3ccc(F)cc3)cc2)CC1 (stereo unspecified) | 15.8 L/kg | 26.5 nM | 52.4 mL/min/kg | 64%
O=C(c1ccc(OCCN2CCCCC2)cc1)c1c(-c2ccc(O)cc2)sc2cc(O)ccc12 [RALOXIFENE] | 17.6 L/kg | 7.5 nM | 158 mL/min/kg | –
Oc1ccc2c(c1)CCN(c1ccccc1)C2c1ccc(OCCN2CCCCC2)cc1 (stereo unspecified) | 13.8 L/kg | 31 nM | 51.9 mL/min/kg | –
Oc1ccc2c(c1)CC[C@H](c1ccccc1)[C@@H]2c1ccc(OCCN2CCCC2)cc1 [LASOFOXIFENE] | 14.7 L/kg | 15.5 nM | 55.7 mL/min/kg | –

Second part, the compound after the results:

Vd [1] | Cmax [2] | clearance [3] | bioavailability (in vivo) | SMILES
9.2 L/kg | 29.7 nM | 28.4 mL/min/kg | 49% | Oc1ccc2c(c1)CCN(c1ccccc1)C2c1ccc(N2CCN3CCCCC3C2)cc1 (stereo unspecified)
5 L/kg | 57.2 nM | 17.9 mL/min/kg | 44% | CC(C)N1CCN(c2ccc(C3c4ccc(O)cc4CCN3c3cccc(O)c3)cc2)CC1 (stereo unspecified)
